# In US20260200849A1, “CATIONIC LIPIDS AND PREPARATION METHOD THEREOF” (RiboX Therapeutics HK Limited, priority 2024, published 2026):
# Assays:
# [1] = LNP size and polydispersity index (PDI) by dynamic light scattering (Zetasizer); type: physicochemical; conditions: for Size (nm): Formulation No. 001 (Ionizable lipid:DSPC:cholesterol:DMG-PEG2000 = 50:10:38.5:1.5, N/P 6), RNA No. 331; for PDI: Formulation No. 001, RNA No. 331
# Description: (§1) The LNP size and polydispersity index (PDI), determined by dynamic light scattering (DLS), and zeta potential were measured by a Zetasizer machine (Malvern). RNA concentration and encapsulation efficacy (EE %) were analyzed by the Quant-IT Ribogreen kit by calculating the percentage encapsulation at 100%—(RNA-LNPs/RNA-LNPs with Triton X-100).
# [2] = RNA encapsulation efficacy (EE %) by Quant-IT Ribogreen kit; type: physicochemical; conditions: LNP, Formulation No. 001, RNA No. 331
# Description: as §1
# Hep G2 cells [3] = test: In vitro expression: luciferase activity in Hep G2 cells transfected with RNA-LNPs; type: cell-based; conditions: Formulation No. 001, RNA No. 331 (firefly-luciferase), 100 ng/mL RNA-LNPs, 72 hours post transfection
# Description: 2E5 Hep G2 cells were transfected with 100 ng/mL of RNA-LNPs encoding for firefly-luciferase. At 72 hours post transfection, the cells were washed and lysed. The luciferase expression (2-well repeat) was determined in the cell lysates with the luciferase assay reagent kit (Promega), according to the kit protocol, luciferase activity was measured by a luminometer.
# Hep G2 cells [4] = test: In vitro toxicity: Hep G2 cell viability by CellTiter-Glo; type: cell-based; conditions: Formulation No. 001, RNA No. 331, 1 μg/mL RNA-LNPs, 72 hours post transfection, cell only = 100%
# Description: 2E5 Hep G2 cells were transfected with 1 μg/mL RNA-LNPs. At 72 hours post transfection, cell viability (2-well repeat) was determined with the CellTiter-Glo® reagent kit, according to the kit protocol, measured by a luminometer. Cell only as control (100%).
# The cell viability was calculated according to the following formula: […]
# Balb/c mice = test: In vivo expression by IV, 0.05 mg/kg luciferase RNA-LNPs, IVIS luminescence; conditions: Formulation No. 001, RNA No. 331; female Balb/c mice, 0.05 mg*kg−1 intravenous, 24-hours post injection
# Description: (§2) 7-8 week old, female Balb/c mice (N=3) were injected with 0.05 mg*kg−1 of RNA-LNPs encoding for firefly-luciferase by intravenous injection. At 24- and 72-hours post injection, animals were intraperitoneally injected with 15 mg/mi of Luciferin substrate and whole-body luminescence was determined by a bioluminescent in vivo imaging system (IVIS).
# as §2, with “24-hours” for “24- and 72-hours”, “mg/ml” for “mg/mi”, “whole-body/liver/spleen” for “whole-body”
Size (nm) [1],PDI [1],EE (%) [2],SMILES,In vitro Expression (Mean) (Hep G2 cells [3]),In vitro cell viability (%) (Mean) (Hep G2 cells [4]),Liver (p/s) (Mean) (Balb/c mice),Spleen (p/s) (Mean) (Balb/c mice),Whole body (p/s) (Mean) (Balb/c mice)
92.24 nm,0.04,97.46%,CCCCCCCCCC(=O)OCCCCCCCOC(=O)C(COC(=O)NCCN(C)C)NC(=O)OCCCCCCCCOC(=O)C(CCCCCC)CCCCCCCC (centres unmarked) [Lipid 930],8.27E+03,92.08%,3.49E+07 p/s,6.28E+06 p/s,1.31E+08 p/s
60.19 nm,0.04,95.30%,CCCCCCCCC(CCCCCCCC)OC(=O)CCCCCCCOC(=O)C(COC(=O)NCCN1CCCCCC1)NC(=O)OCCCCCCCCOC(=O)C(CCCCCC)CCCCCCCC (centres unmarked) [Lipid 897],1.77E+05,88.39%,1.67E+08 p/s,7.67E+07 p/s,8.36E+08 p/s
74.18 nm,0.03,97.83%,CCCCCCCCCCCOC(=O)NC(COC(=O)NCCN(C)C)C(=O)OCCCCCCCC(=O)OC(CCCCCCCC)CCCCCCCC (centres unmarked) [Lipid 912],4.57E+04,92.96%,1.67E+07 p/s,7.97E+06 p/s,8.26E+07 p/s
74.26 nm,0.02,98.41%,CCCCC/C=C\C/C=C\CCCCCCCCOC(=O)NC(COC(=O)NCCN1CCCC1)C(=O)OCCCCCC(=O)OCC(CCCCCCCC)CCCCCCCCCC (centres unmarked) [Lipid 909],7.29E+04,94.80%,7.57E+07 p/s,2.35E+07 p/s,7.25E+08 p/s
